Here are results for five compounds from US4585773A, “Isoindolinyl-alkyl-piperazines” (Bristol-Myers Company, priority 1984, dated 1986).

The nature of assay [1]: diuretic properties compared to prazosin, acute (1-day) and chronic (5-day), conscious rats. The format is in vivo, rat (female Sprague-Dawley). The following applies: 3.0 mg/kg, by mouth. As for the experimental part:
In this Example the compound of Example I as the hydrochloride salt containing 3/4 mol of HCl instead of 1 mol HCl, i.e. […] Studies were conducted with conscious, 150-200 g, female Sprague-Dawley rats (Charles River Labs, Wilmington, MA) using the protocol of Hanson et al., Mineral Elect. Metab., 8: 314-324 (1982). Animals were maintained in stainless steel gang cages in temperature-controlled rooms with a 12-hour light, 12-hour dark cycle and provided Purina Rodent Lab Chow, with water ad libitum. All animals were fasted 18 hours prior to acute (first-day) dosing and water was withheld during the experiment. […] Groups of ten animals (2/cage) were studied. A controlled (non-drug) group comprised of an equal number of animals was included. Test drugs were suspended in 0.25% methocel-saline (0.9% NaCl) and administered orally by stomach intubation at the doses mentioned above. The oral fluid load volume containing the respective drug dose was uniformly maintained at 25 ml/kg; controls received in methocel-saline vehicle only. Urine was collected over a 5-hour period from rats housed in metabolism cages (2 rats per cage); one specimen consisted of the pooled sample collected from each cage. The urine volume (ml) excreted by each pair of rats was measured and electrolyte (Na, K, Cl, Ca, P) concentrations were determined with an AAII Autoanalyzer (Technicon) employing established procedures. At the end of the acute (1-day) phase, each pair of rats was returned to a separate cage (2/cage) and provided both food and water. On the following three days, each animal received its respective drug methocel-saline load via a stomach intubation. On the fifth day (after an 18-hour fast) all rats were again treated and placed in metabolism cages (2 rats/cage) for a 5-hour urine collection (chronic-effect: 5-day).

The conditions of assay [2]: background statement; cited from earlier work.
Assay [3] deals with Spontaneously Hypertensive rat. The following applies: Suzuki et al.; cited from earlier work.
Where [4] appears, read: chronic administration (5-days).

The structures appear in SMILES notation.

For the compound `COc1ccccc1N1CCN(CCCN2Cc3cc(Cl)c(S(N)(=O)=O)cc3C2=O)CC1` [MJ15037-1A, 6-chloro-2,3-dihydro-2-[3-[4-(2-methoxyphenyl)-1-piperazinyl]propyl]-3-oxo-1H-isoindole-5-sulfonamide], in assay [1] (acute treatment (1-day)), the “natriuretic/diuretic activity (in words)” value is recorded as “no natriuretic/diuretic activity”. Besides, in assay [1] (setting [4]), the “chlorouresis, increase over control” value came out at 31% and the “natriuresis, increase over control” value is given as 32%.
On to `COc1cc2nc(N3CCN(C(=O)c4ccco4)CC3)nc(N)c2cc1OC` [Prazosin, prazosin], for which, in assay [2], the “antihypertensive and diuretic activity (in words)” value is “a very active antihypertensive agent has antidiuretic activity”.
Consider `NS(=O)(=O)c1cc2c(cc1Cl)CN(C1CCCCC1)C2=O` [chlorexolone], for which the “antihypertensive and diuretic activity (in words)” value in assay [2] is “diuretic and hypertensive activity”. In addition, the “effects in the spontaneously hypertensive rat (in words)” value (shortened to “effects”) in assay [3] is reported as “favorable effects”.
As for `NS(=O)(=O)c1cc2c(cc1C(F)(F)F)NCNS2(=O)=O` [hydroflumethiazide], in assay [3], the “effects” value is recorded as “favorable effects”.
Take `Nc1nc(N)c2nc(-c3ccccc3)c(N)nc2n1` [triamterene]: in assay [3], the “effects” value is recorded as “favorable effects”.
